How the values were obtained:
[1] = system: Diabrotica balteata (Corn Root Worm); test: Example B1: Diabrotica balteata, spray on maize sprouts; type: in vivo; settings: 96 h, application rate of 200 ppm, L2 larvae, 4 days after infestation, read-out: control in at least one of the two categories (mortality or growth inhibition)
Protocol: Example B1: Diabrotica balteata (Corn Root Worm)
Maize sprouts placed onto an agar layer in 24-well microtiter plates were treated with aqueous test solutions prepared from 10,000 ppm DMSO stock solutions by spraying. After drying, the plates were infested with L2 larvae (6 to 10 per well). The samples were assessed for mortality and growth inhibition in comparison to untreated samples 4 days after infestation.
(§1) The following compounds gave an effect of at least 80% control in at least one of the two categories (mortality or growth inhibition) at an application rate of 200 ppm: […]

[2] = system: Euschistus heros (Neotropical Brown Stink Bug); test: Example B2: Euschistus heros, spray on soybean leaves; type: in vivo; settings: 120 h, application rate of 200 ppm, N2 nymphs, 5 days after infestation, read-out: control in at least one of the two categories (mortality or growth inhibition)
Protocol: Example B2: Euschistus heros (Neotropical Brown Stink Bug)
Soybean leaves on agar in 24-well microtiter plates were sprayed with aqueous test solutions prepared from 10,000 ppm DMSO stock solutions. After drying the leaves were infested with N2 nymphs. The samples were assessed for mortality and growth inhibition in comparison to untreated samples 5 days after infestation.
as §1

[3] = system: Chilo suppressalis (Striped Rice Stemborer); test: Example B3: Chilo suppressalis, artificial diet; type: in vivo; settings: 144 h, application rate of 200 ppm, L2 larvae, 6 days after infestation, read-out: control in at least one of the three categories (mortality, anti-feedant effect, or growth inhibition)
Protocol: Example B3: Chilo suppressalis (Striped Rice Stemborer)
24-well microtiter plates with artificial diet were treated with aqueous test solutions prepared from 10,000 ppm DMSO stock solutions by pipetting. After drying, the plates were infested with L2 larvae (6-8 per well). The samples were assessed for mortality, anti-feeding effect, and growth inhibition in comparison to untreated samples 6 days after infestation. Control of Chilo suppressalis by a test sample is given when at least one of the categories mortality, anti-feedant effect, and growth inhibition is higher than the untreated sample.

[4] = system: Plutella xylostella (Diamond Back Moth); test: Example B4: Plutella xylostella, artificial diet, 24-well; type: in vivo; settings: 192 h, application rate of 200 ppm, eggs, 8 days after infestation, read-out: control in at least one of the two categories (mortality or growth inhibition)
Protocol: Example B4: Plutella xylostella (Diamond Back Moth)
24-well microtiter plates with artificial diet were treated with aqueous test solutions prepared from 10,000 ppm DMSO stock solutions by pipetting. After drying, Plutella eggs were pipetted through a plastic stencil onto a gel blotting paper and the plate was closed with it. The samples were assessed for mortality and growth inhibition in comparison to untreated samples 8 days after infestation.
as §1

[5] = system: Spodoptera littoralis (Egyptian Cotton Leaf Worm); test: Example B6: Spodoptera littoralis, spray on cotton leaf discs; type: in vivo; settings: foliar, 72 h, application rate of 200 ppm, L1 larvae, 3 days after infestation, read-out: control in at least one of the three categories (mortality, anti-feedant effect, or growth inhibition)
Protocol: Example B6: Spodoptera littoralis (Egyptian Cotton Leaf Worm)
Cotton leaf discs were placed onto agar in 24-well microtiter plates and sprayed with aqueous test solutions prepared from 10,000 ppm DMSO stock solutions. After drying the leaf discs were infested with five L1 larvae. The samples were assessed for mortality, anti-feeding effect, and growth inhibition in comparison to untreated samples 3 days after infestation. Control of Spodoptera littoralis by a test sample is given when at least one of the categories mortality, anti-feedant effect, and growth inhibition is higher than the untreated sample.

[6] = system: Spodoptera littoralis (Egyptian Cotton Leaf Worm); test: Example B7: Spodoptera littoralis, uptake by lettuce roots from agar; type: in vivo; settings: 144 h, test rate of 12.5 ppm, absorbed by lettuce roots, eggs, 6 days after infestation, read-out: control in at least one of the three categories (mortality, anti-feeding, or growth inhibition)
Excerpt: Example B7: Spodoptera littoralis (Egyptian Cotton Leaf Worm)
Test compounds were applied by pipette from 10,000 ppm DMSO stock solutions into 24-well plates and mixed with agar. Lettuce seeds were placed onto the agar and the multi well plate was closed by another plate which contained also agar. After 7 days the compound was absorbed by the roots and the lettuce grew into the lid plate. The lettuce leaves were then cut off into the lid plate. Spodoptera eggs were pipetted through a plastic stencil onto a humid gel blotting paper and the lid plate was closed with it. The samples were assessed for mortality, anti-feedant effect and growth inhibition in comparison to untreated samples 6 days after infestation.
The following compounds gave an effect of at least 80% control in at least one of the three categories (mortality, anti-feeding, or growth inhibition) at a test rate of 12.5 ppm: […]

[7] = system: Myzus persicae (Green Peach Aphid); test: Example B5: Myzus persicae, intrinsic activity; type: in vivo; settings: 120 h, test rate of 12 ppm, 5 days after infestation
Excerpt: Example B5: Myzus persicae (Green Peach Aphid). Intrinsic Activity
Test compounds prepared from 10,000 ppm DMSO stock solutions were applied by pipette into 24-well microtiter plates and mixed with sucrose solution. The plates were closed with a stretched Parafilm. A plastic stencil with 24 holes was placed onto the plate and infested pea seedlings were placed directly on the Parafilm. The infested plate was closed with a gel blotting paper and another plastic stencil and then turned upside down. The samples were assessed for mortality 5 days after infestation.

[8] = system: Plutella xylostella (Diamondback Moth); test: Example B9: Plutella xylostella, artificial diet, 96-well; type: in vivo; settings: 216 h, application rate of 500 ppm, eggs/L1 larvae, 9 days after infestation
Protocol: Example B9: Plutella xylostella (Diamondback Moth)
96-well microtiter plates containing artificial diet were treated with aqueous test solutions, prepared from 10,000 ppm DMSO stock solutions, by a liquid handling robot. After drying, eggs (˜30 per well) were infested onto a netted lid which was suspended above the diet. The eggs hatch and L1 larvae move down to the diet. The samples were assessed for mortality 9 days after infestation.
The following compounds gave an effect of at least 80% mortality at an application rate of 500 ppm: […]

[9] = system: Myzus persicae (Green Peach Aphid); test: Example B10: Myzus persicae, sucrose solution, 96-well; type: in vivo; settings: 120 h, application rate of 50 ppm, 5 days after infestation
Excerpt: Example B10: Myzus persicae (Green Peach Aphid)
Test compounds prepared from 10,000 ppm DMSO stock solutions were applied by a liquid handling robot into 96-well microtiter plates and mixed with a sucrose solution. Parafilm was stretched over the 96-well microtiter plate and a plastic stencil with 96 holes was placed onto the plate. Aphids were sieved into the wells directly onto the Parafilm. The infested plates were closed with a gel blotting card and a second plastic stencil and then turned upside down. The samples were assessed for mortality 5 days after infestation.

SMILES	melting point [°C]	percent control (mortality or growth inhibition) at 200 ppm [1] [%]	percent control (mortality or growth inhibition) at 200 ppm [2] [%]	percent control (mortality, anti-feedant effect or growth inhibition) at 200 ppm [3] [%]	percent control (mortality or growth inhibition) at 200 ppm [4] [%]	percent control (mortality, anti-feedant effect or growth inhibition) at 200 ppm [5] [%]	percent control (mortality, anti-feeding or growth inhibition) at 12.5 ppm [6] [%]	mortality at 12 ppm [7] [%]	mortality at 500 ppm [8] [%]	mortality at 50 ppm [9] [%]
CCOc1cc(C(=O)NC(C)c2nccnc2-n2nccn2)cc(Cl)n1 (centres unmarked) [Compound P21, 2-chloro-6-ethoxy-N-[1-[3-(triazol-2-yl)pyrazin-2-yl]ethyl]pyridine-4-carboxamide]	129 to 130	–	–	–	–	–	–	–	–	–
CC(NC(=O)c1cc(C(F)(F)F)cc(C(F)(F)F)c1)c1nccnc1-n1nccn1 (centres unmarked) [Compound P49, N-[1-[3-(triazol-2-yl)pyrazin-2-yl]ethyl]-3,5-bis(trifluoromethyl)benzamide]	–	≥ 80	≥ 80	≥ 80	≥ 80	≥ 80	≥ 80	–	–	–
CCc1cc(C(=O)NC(C)c2nccnc2-n2nccn2)cc(Cl)n1 (centres unmarked) [Compound P31, 2-chloro-6-ethyl-N-[1-[3-(triazol-2-yl)pyrazin-2-yl]ethyl]pyridine-4-carboxamide]	126 to 129	–	–	–	–	–	–	–	–	–
CCCc1cc(C(=O)NC(C)c2nccnc2-n2nccn2)cc(Cl)n1 (centres unmarked) [Compound P34, 2-chloro-6-propyl-N-[1-[3-(triazol-2-yl)pyrazin-2-yl]ethyl]pyridine-4-carboxamide]	142 to 145	–	–	–	–	–	–	–	–	–
Cc1cnc(C(C)NC(=O)c2cc(C(F)(F)F)cc(C(F)(F)F)c2)c(-n2ccnn2)n1 (centres unmarked) [Compound P43, N-[1-[5-methyl-3-(triazol-1-yl)pyrazin-2-yl]ethyl]-3,5-bis(trifluoromethyl)benzamide]	167 to 171	–	–	–	–	–	–	–	–	–
CC(NC(=O)c1cc(C(F)F)cc(C(F)(F)F)c1)c1nccnc1-n1nccn1 (centres unmarked) [Compound P3, 3-(difluoromethyl)-N-[1-[3-(triazol-2-yl)pyrazin-2-yl]ethyl]-5-(trifluoromethyl)benzamide]	–	≥ 80	≥ 80	≥ 80	≥ 80	≥ 80	–	≥ 80	≥ 80	≥ 80
COc1cc(C)cc(C(=O)NC(C)c2nccnc2-n2nccn2)c1 (centres unmarked) [Compound P27, 3-methoxy-5-methyl-N-[1-[3-(triazol-2-yl)pyrazin-2-yl]ethyl]benzamide]	128 to 129	–	–	–	–	–	–	–	–	–
CC(NC(=O)c1cc(Cl)nc(Cl)c1)c1nccnc1-n1nccn1 (centres unmarked) [Compound P29, 2,6-dichloro-N-[1-[3-(triazol-2-yl)pyrazin-2-yl]ethyl]pyridine-4-carboxamide]	–	≥ 80	–	≥ 80	≥ 80	≥ 80	≥ 80	–	≥ 80	≥ 80
CC(NC(=O)c1cc(Cl)cc(C(F)(F)F)c1)c1nccnc1-n1nccn1 (centres unmarked) [Compound P4, 3-chloro-N-[1-[3-(triazol-2-yl)pyrazin-2-yl]ethyl]-5-(trifluoromethyl)benzamide]	–	≥ 80	≥ 80	≥ 80	≥ 80	≥ 80	≥ 80	–	≥ 80	≥ 80
CC(NC(=O)c1cc(C(F)(F)F)cc(S(=O)(=O)C2CC2)c1)c1nccnc1-n1nccn1 (centres unmarked) [Compound P40, 3-cyclopropylsulfonyl-N-[1-[3-(triazol-2-yl)pyrazin-2-yl]ethyl]-5-(trifluoromethyl)benzamide]	–	–	–	≥ 80	≥ 80	≥ 80	–	≥ 80	≥ 80	≥ 80
CC(NC(=O)c1cc(OC(F)(F)F)cc(C(F)(F)F)c1)c1nccnc1-n1nccn1 (centres unmarked) [Compound P5, N-[1-[3-(triazol-2-yl)pyrazin-2-yl]ethyl]-3-(trifluoromethoxy)-5-(tifluoromethyl)benzamide]	–	≥ 80	–	≥ 80	≥ 80	≥ 80	≥ 80	–	≥ 80	–
CC(NC(=O)c1cc(OC(F)F)cc(C(F)(F)F)c1)c1nccnc1-n1nccn1 (centres unmarked) [Compound P10, 3-(difluoromethoxy)-N-[1-[3-(triazol-2-yl)pyrazin-2-yl]ethyl]-5-(trifluoromethyl)benzamide]	–	≥ 80	–	≥ 80	≥ 80	≥ 80	≥ 80	–	≥ 80	≥ 80
CC(NC(=O)c1cc(Br)cc(C(F)(F)F)c1)c1nccnc1-n1nccn1 (centres unmarked) [Compound P2, 3-bromo-N-[1-[3-(triazol-2-yl)pyrazin-2-yl]ethyl]-5-(trifluoromethyl)benzamide]	–	≥ 80	≥ 80	≥ 80	≥ 80	≥ 80	≥ 80	–	≥ 80	≥ 80
Cc1cc(F)cc(C(=O)NC(C)c2nccnc2-n2nccn2)c1 (centres unmarked) [Compound P37, 3-fluoro-5-methyl-N-[1-[3-(triazol-2-yl)pyrazin-2-yl]ethyl]benzamide]	154 to 155	–	–	–	–	–	–	–	–	–

From patent US20220289715A1, “PESTICIDALLY ACTIVE PYRAZINE-AMIDE COMPOUNDS” (priority 2019, published 2022)
